Results reported in PubChem BioAssay (NCI).
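The compound was tested at five concentrations on cells cultured in 96-well plates, with a 48-hour exposure period. The concentration for full growth arrest is given as TGI.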

Tests used:
Assay in all cases: NCI tumour cell line growth inhibition, 48 h
M14 melanoma = tested on: M14 melanoma
DU-145 prostate = tested on: DU-145 prostate
NCI/ADR-RES ovarian = tested on: NCI/ADR-RES ovarian
786-0 renal = tested on: 786-0 renal
SK-OV-3 ovarian = tested on: SK-OV-3 ovarian
HCT-15 colon = tested on: HCT-15 colon
SK-MEL-28 melanoma = tested on: SK-MEL-28 melanoma
EKVX NSCLC = tested on: EKVX NSCLC
SF-268 CNS = tested on: SF-268 CNS
HOP-62 NSCLC = tested on: HOP-62 NSCLC
NCI-H522 lung = tested on: NCI-H522 lung
HCC-2998 colon = tested on: HCC-2998 colon
SF-539 CNS = tested on: SF-539 CNS
MCF7 breast = tested on: MCF7 breast
OVCAR-8 ovarian = tested on: OVCAR-8 ovarian
OVCAR-4 ovarian = tested on: OVCAR-4 ovarian
IGROV1 ovarian = tested on: IGROV1 ovarian
K-562 leukemia = tested on: K-562 leukemia
HL-60(TB) leukemia = tested on: HL-60(TB) leukemia
LOX IMVI melanoma = tested on: LOX IMVI melanoma
MDA-N = tested on: MDA-N
NCI-H460 lung = tested on: NCI-H460 lung
OVCAR-3 ovarian = tested on: OVCAR-3 ovarian
ACHN renal = tested on: ACHN renal
SN12C renal = tested on: SN12C renal
SF-295 CNS = tested on: SF-295 CNS
HCT-116 colon = tested on: HCT-116 colon
BT-549 breast = tested on: BT-549 breast
CAKI-1 renal = tested on: CAKI-1 renal
SW-620 colon = tested on: SW-620 colon
CCRF-CEM leukemia = tested on: CCRF-CEM leukemia
RPMI-8226 leukemia = tested on: RPMI-8226 leukemia
T-47D breast = tested on: T-47D breast
NCI-H226 lung = tested on: NCI-H226 lung
HS 578T breast = tested on: HS 578T breast
KM12 colon = tested on: KM12 colon
SNB-75 CNS = tested on: SNB-75 CNS
U251 CNS = tested on: U251 CNS
OVCAR-5 ovarian = tested on: OVCAR-5 ovarian
UO-31 renal = tested on: UO-31 renal
MDA-MB-231 breast = tested on: MDA-MB-231 breast
COLO 205 colon = tested on: COLO 205 colon
HOP-92 NSCLC = tested on: HOP-92 NSCLC
MOLT-4 leukemia = tested on: MOLT-4 leukemia
SNB-19 CNS = tested on: SNB-19 CNS
SK-MEL-5 melanoma = tested on: SK-MEL-5 melanoma
NCI-H23 lung = tested on: NCI-H23 lung
A549 NSCLC = tested on: A549 NSCLC
A498 renal = tested on: A498 renal
UACC-257 melanoma = tested on: UACC-257 melanoma
RXF 393 renal = tested on: RXF 393 renal
UACC-62 melanoma = tested on: UACC-62 melanoma
HT29 colon = tested on: HT29 colon
SR leukemia = tested on: SR leukemia
SK-MEL-2 melanoma = tested on: SK-MEL-2 melanoma
MDA-MB-435 = tested on: MDA-MB-435
TK-10 renal = tested on: TK-10 renal
PC-3 prostate = tested on: PC-3 prostate
MALME-3M melanoma = tested on: MALME-3M melanoma

`CCOC(=O)C1=C(C)N(C)C(=S)NC1c1cccc(O)c1` (centres undefined) gave a TGI (M14 melanoma) of 83.1 µM, a TGI (DU-145 prostate) greater than 100 µM and a TGI (NCI/ADR-RES ovarian) of 54.9 µM. For the same molecule, the TGI (786-0 renal) was greater than 100 µM, the TGI (SK-OV-3 ovarian) was greater than 100 µM and the TGI (HCT-15 colon) was greater than 100 µM. For the same molecule, the TGI (SK-MEL-28 melanoma) was greater than 100 µM, the TGI (EKVX NSCLC) was 93.6 µM and the TGI (SF-268 CNS) was greater than 100 µM. It also gave a TGI (HOP-62 NSCLC) greater than 100 µM, a TGI (NCI-H522 lung) greater than 100 µM and a TGI (HCC-2998 colon) of 92.6 µM. It also gave a TGI (SF-539 CNS) greater than 100 µM, a TGI (MCF7 breast) greater than 100 µM and a TGI (OVCAR-8 ovarian) greater than 100 µM. It also gave a TGI (OVCAR-4 ovarian) greater than 100 µM, a TGI (IGROV1 ovarian) greater than 100 µM and a TGI (K-562 leukemia) greater than 100 µM. For the same molecule, the TGI (HL-60(TB) leukemia) was 64 µM, the TGI (LOX IMVI melanoma) was greater than 100 µM and the TGI (MDA-N) was 33 µM. For the same molecule, the TGI (NCI-H460 lung) was greater than 100 µM, the TGI (OVCAR-3 ovarian) was greater than 100 µM and the TGI (ACHN renal) was greater than 100 µM. For the same molecule, the TGI (SN12C renal) was greater than 100 µM, the TGI (SF-295 CNS) was greater than 100 µM and the TGI (HCT-116 colon) was greater than 100 µM. It also gave a TGI (BT-549 breast) of 87.9 µM, a TGI (CAKI-1 renal) greater than 100 µM and a TGI (SW-620 colon) greater than 100 µM. The TGI (CCRF-CEM leukemia) was 72.1 µM, the TGI (RPMI-8226 leukemia) was greater than 100 µM and the TGI (T-47D breast) was greater than 100 µM. The TGI (NCI-H226 lung) was greater than 100 µM, the TGI (HS 578T breast) was greater than 100 µM and the TGI (KM12 colon) was greater than 100 µM. For the same molecule, the TGI (SNB-75 CNS) was greater than 100 µM, the TGI (U251 CNS) was greater than 100 µM and the TGI (OVCAR-5 ovarian) was greater than 100 µM. It also gave a TGI (UO-31 renal) greater than 100 µM, a TGI (MDA-MB-231 breast) greater than 100 µM and a TGI (COLO 205 colon) greater than 100 µM. It also gave a TGI (HOP-92 NSCLC) of 75.1 µM, a TGI (MOLT-4 leukemia) greater than 100 µM and a TGI (SNB-19 CNS) greater than 100 µM. For the same molecule, the TGI (SK-MEL-5 melanoma) was greater than 100 µM, the TGI (NCI-H23 lung) was greater than 100 µM and the TGI (A549 NSCLC) was greater than 100 µM. The TGI (A498 renal) was 84 µM, the TGI (UACC-257 melanoma) was greater than 100 µM and the TGI (RXF 393 renal) was 52.4 µM. For the same molecule, the TGI (UACC-62 melanoma) was greater than 100 µM, the TGI (HT29 colon) was greater than 100 µM and the TGI (SR leukemia) was 57.3 µM. The TGI (SK-MEL-2 melanoma) was 97.2 µM, the TGI (MDA-MB-435) was 34.9 µM and the TGI (TK-10 renal) was greater than 100 µM. For the same molecule, the TGI (PC-3 prostate) was greater than 100 µM.

In the case of `COc1ccc(-c2c3c(n(C4OC(CO)C(O)C(O)C4O)c(=S)c2C#N)CC(C)(C)CC3=O)cc1` (centres undefined), the TGI (M14 melanoma) was greater than 100 µM, the TGI (DU-145 prostate) was greater than 100 µM and the TGI (NCI/ADR-RES ovarian) was greater than 100 µM. The TGI (786-0 renal) was greater than 100 µM, the TGI (HCT-15 colon) was greater than 100 µM and the TGI (SK-MEL-28 melanoma) was greater than 100 µM. The TGI (SF-268 CNS) was greater than 100 µM, the TGI (HOP-62 NSCLC) was greater than 100 µM and the TGI (NCI-H522 lung) was greater than 100 µM. It also gave a TGI (HCC-2998 colon) greater than 100 µM, a TGI (SF-539 CNS) greater than 100 µM and a TGI (MCF7 breast) greater than 100 µM. For the same molecule, the TGI (OVCAR-8 ovarian) was greater than 100 µM, the TGI (MALME-3M melanoma) was greater than 100 µM and the TGI (OVCAR-4 ovarian) was greater than 100 µM. The TGI (IGROV1 ovarian) was greater than 100 µM, the TGI (K-562 leukemia) was greater than 100 µM and the TGI (HL-60(TB) leukemia) was greater than 100 µM. For the same molecule, the TGI (LOX IMVI melanoma) was greater than 100 µM, the TGI (MDA-N) was greater than 100 µM and the TGI (NCI-H460 lung) was greater than 100 µM. For the same molecule, the TGI (OVCAR-3 ovarian) was greater than 100 µM, the TGI (ACHN renal) was greater than 100 µM and the TGI (SN12C renal) was greater than 100 µM. For the same molecule, the TGI (SF-295 CNS) was greater than 100 µM, the TGI (HCT-116 colon) was greater than 100 µM and the TGI (BT-549 breast) was greater than 100 µM. The TGI (CAKI-1 renal) was greater than 100 µM, the TGI (CCRF-CEM leukemia) was greater than 100 µM and the TGI (RPMI-8226 leukemia) was greater than 100 µM. The TGI (T-47D breast) was greater than 100 µM, the TGI (NCI-H226 lung) was greater than 100 µM and the TGI (HS 578T breast) was greater than 100 µM. The TGI (KM12 colon) was greater than 100 µM, the TGI (SNB-75 CNS) was greater than 100 µM and the TGI (U251 CNS) was greater than 100 µM. It also gave a TGI (OVCAR-5 ovarian) greater than 100 µM, a TGI (UO-31 renal) greater than 100 µM and a TGI (MDA-MB-231 breast) greater than 100 µM. It also gave a TGI (COLO 205 colon) greater than 100 µM, a TGI (HOP-92 NSCLC) greater than 100 µM and a TGI (MOLT-4 leukemia) greater than 100 µM. The TGI (SNB-19 CNS) was greater than 100 µM, the TGI (SK-MEL-5 melanoma) was greater than 100 µM and the TGI (NCI-H23 lung) was greater than 100 µM. The TGI (A549 NSCLC) was greater than 100 µM, the TGI (A498 renal) was greater than 100 µM and the TGI (UACC-257 melanoma) was greater than 100 µM. For the same molecule, the TGI (RXF 393 renal) was greater than 100 µM, the TGI (UACC-62 melanoma) was greater than 100 µM and the TGI (HT29 colon) was greater than 100 µM. The TGI (SR leukemia) was greater than 100 µM, the TGI (SK-MEL-2 melanoma) was greater than 100 µM and the TGI (MDA-MB-435) was greater than 100 µM. The TGI (TK-10 renal) was greater than 100 µM and the TGI (PC-3 prostate) was greater than 100 µM.
